Three compounds from patent publication US12636278B2, “HDAC6-inhibited human regulatory T cells” (H. LEE MOFFITT CANCER CENTER AND RESEARCH INSTITUTE, INC., priority 2020, dated 2026) can be followed below.

One test deals with autologous T responders. The test can be described thus: Suppression assay of treated antigen-specific nTreg with 10:1 autologous T responders and allogeneic DCs. In kind it is cell-based. The note with it: 10:1 autologous T responders; proliferation measured on day +6; compared to DMSO. The text has this:
Suppression assay of DMSO- or HDAC-treated, antigen-specific nTreg in culture with 10:1 autologous T responders and allogeneic DCs. Proliferation measured on day +6. […] PAN=Panobinostat, NEXT=Nexturastat-B, TUBA=Tubastatin. DMSO is vehicle control.

Another test deals with allo-specific nTregs. Nature of the test: Limiting dilution assay (LDA), frequency of allo-specific nTregs after 12 days with allogeneic moDCs. In kind it is cell-based, human. The note with it: for mean fold expansion of allo-specific nTregs: 12 days with unrelated moDCs, compared to DMSO; for frequency of antigen-specific thymic Tregs: after 12 days of culture with allogeneic moDCs. The protocol: (§1) FIG. 1A show purified, human Tregs stimulated by allogeneic, monocyte-derived dendritic cells for 5-6 days, with HDTK032 or DMSO added once on day 0. The medium was also supplemented with IL-2 and IL-15. […] Proliferation was analyzed by Cell Trace Violet dilution among CD4^+, CD127^−, CD25^bright Tregs. […] FIG. 1C is a graph showing on-target alpha-tubulin acetylation of HDTK032 or DMSO treated Tregs. One representative experiment of 3 independent studies is shown. […] One representative donor Treg expansion of 4 independent experiments is shown. *P<0.05.
(§2) HDAC6-deficient mice are known to generate increased amounts of Tregs, both at stead-state in vivo and after polyclonal stimulation in vitro. However, such findings have never been translated to human immunity. Human nTregs (CD4^+, CD127^−, CD25+) were purified by magnetic bead isolation, stimulated with allogeneic moDCs, supplemented with IL-2, and treated with HDTK032, a selective and potent HDAC6 inhibitor, or DMSO (<0.01%) vehicle control once on day 0. After 5-6 days of culture, the nTregs were harvested and enumerated. […] Using the limiting dilution assay (LDA) we measured the precise frequency of allo-specific nTregs after stimulation with unrelated moDCs for 12 days. For these experiments, the HDAC6 inhibitors, HDTK032 and tubastatin, were compared against DMSO. Overall, the mean fold expansion was approximately 130-fold with either HDAC6 inhibitor compared to DMSO (FIG. 1D).

The test system of test [1] is T cell responders stimulated by allogeneic DCs. The test can be described thus: Suppression assay of pre-treated nTregs in mixed leukocyte reactions. The test is classed as cell-based, human. The note with it: nTregs exposed to drug for 5 days; nTreg:T cell ratio 1:500 or 1:50; no drug in secondary culture; compared to DMSO-treated nTregs. The protocol:
The suppressive capacity of DC-allostimulated thymic Tregs previously exposed to HDTK032, tubastatin, or DMSO was tested at different ratios of Treg to T cell responders stimulated by fresh allogeneic DCs (DC:responder T cell ratio of 1:30) in mixed leukocyte reactions. No additional drugs or DMSO were added to the medium. […] Data are from one representative experiment of 3 independent studies performed.
Next we investigated whether HDAC6 blockade impacted nTreg function. Purified nTregs were stimulated with allogeneic moDCs plus IL-2 while exposed to tubastatin, HDTK032, or DMSO for 5 days. The nTregs were harvested and cultured with autologous T cells (nTreg:T cell ratio 1:500 or 1:50) targeting fresh allogeneic moDCs. No additional drugs were added to the secondary cultures.

Test [2] concerns NSG mice with human skin xenograft. Nature of the test: Human skin xenograft rejection model with adoptive transfer of pre-treated Tregs. In kind it is in vivo. The note with it: day +21; 5x10^4 nTregs expanded ex vivo with drug (tubastatin 1 μM, HDTK032 2.5 μM); no systemic drug; compared to PBMCs alone. The protocol: NSG mice received a 1 cm^2 split thickness human skin graft. After 30 days of rest to permit engraftment, 5×10^6 human PBMCs (allogeneic to the skin) were injected into the mice. A week prior to PBMC injection, Tregs from the PBMC donor were expanded with mature DCs from the skin donor (Treg:DC ratio 30:1) and cultured for 5-6 days in the presence of DMSO (<0.1%), tubastatin (1 μM), HDTK032 (2.5 μM). In coordination with the PBMC injection, recipient mice were also inoculated with CD25-bead purified, Tregs (5×10^4) expanded with DMSO, tubastatin, HDTK032. A control group received PBMCs alone. FIG. 3A contains representative contour plots showing the purity (>95% pure) of the injected Tregs (CD4^+, CD127^−, CD25^bright, Foxp3+) for each experimental condition. […] Pooled data from 3 independent experiments, with up to 9 mice per experimental group. […]
FIGS. 5A to 5D show pathogenic Th17 cells are decreased in the periphery among mice treated with HDAC6-inhibited human Tregs. […] Recipient spleens were harvested on day +21, stained for Th17s (CD4^+, IL-17^+) or Tregs (CD4^+, CD127^−, CD25^bright, Foxp3^+), and analyzed by flow cytometry. […]
FIGS. 6A to 6C show circulating human Th1 cells are reduced after adoptive transfer of HDAC6-inhibited Tregs. […] Recipient spleens were harvested on day +21, stained for Th1s (CD4^+, IFNγ^+) or Th2s (CD4^+, IL-4^+), and analyzed by flow cytometry. […]
For orientation: A xenograft is tissue or cells of one species grown in another, often human tumour cells in immunodeficient mice.

The subject of the next test is antigen-specific nTreg. Nature of the test: Proliferation of antigen-specific nTreg with allogeneic DC, IL-2 and IL-15 (CPM, day +6). In kind it is cell-based. The note with it: drugs added once on day 0; CPM on day +6. The text has this:
Purified nTreg+allogeneic dendritic cells (DC)+IL-2+IL-15. Drugs added once on day 0. Proliferation measured as CPM on day +6.

In test [3] the test system is human nTregs (CD4+, CD127-, CD25+). Nature of the test: Treg proliferation and expansion after stimulation with allogeneic moDCs, 5-6 days. The test is classed as cell-based. The conditions noted are these: drug added once on day 0, compared to DMSO. The protocol: as §1
as §2, with “Overall, the mean fold expansion was approximately 130-fold with either HDAC6 inhibitor compared to DMSO (FIG. 1D).” left out

The next test deals with HDAC6. The test can be described thus: On-target alpha-tubulin acetylation in treated nTregs. The test is classed as cell-based, human. The note with it: compared to DMSO. The protocol: as §1
as §2, with “Overall, the mean fold expansion was approximately 130-fold with either HDAC6 inhibitor compared to DMSO (FIG. 1D).” left out

“Also recorded” adds a separate entry of the source.

For the compound `CCCCN(Cc1ccc(C(=O)NO)cc1)C(=O)Nc1ccc2cn[nH]c2c1` [Nexturastat-B, Nexturastat B], the “suppressive function of nTreg” value with autologous T responders is listed as “significantly increase”.

On to `CN1CCc2c(c3ccccc3n2Cc2ccc(C(=O)NO)cc2)C1` [Tubastatin A, reference compound], for which, in the test on allo-specific nTregs, the “mean fold expansion of allo-specific nTregs” value is reported as “approximately 130 fold” and the “frequency of antigen-specific thymic Tregs” value is “increase”. In test [1], the “suppressive potency of pre-treated nTregs” value is recorded as “significantly more potent”. In addition, the skin graft rejection entry in test [2] is on record as “significantly reduced”. In the test on antigen-specific nTreg, the “proliferation and expansion of antigen-specific nTreg” value is recorded as “significantly enhance”. In the test on autologous T responders, the “suppressive function of nTreg” value was “significantly increase”.

Turning to `O=C(NO)c1ccc2c(c1)OC[C@H](c1ccccc1)N(C(=O)C1CCOCC1)C2` [HDTK032, (3S)—N-hydroxy-4-(oxane-4-carbonyl)-3-phenyl-2,3,4,5-tetrahydro-1,4-benzoxazepine-8-carboxamide], the “proliferative capacity of nTregs (CellTrace Violet dilution)” value in test [3] (5-6 days) was “increased”. Further, the “amount of nTregs” value in test [3] (after 5-6 days of culture) is given as “significantly increased; also recorded: increases”. In addition, the “amount of acetylated α-tubulin” value with HDAC6 is on record as “increase”. In the test with allo-specific nTregs, the “mean fold expansion of allo-specific nTregs” value was “approximately 130 fold” and the “frequency of antigen-specific thymic Tregs” value is recorded as “increase”. Also, the “suppressive potency of pre-treated nTregs” value in test [1] is reported as “significantly more potent”. In addition, in test [2], the skin graft rejection result was “significantly reduced”.
